Data reported in patent US7223572B1, “Methylophilus methylotrophus having enhanced dihydrodipicolinate synthase and/or aspartokinase activity for L-amino acid production” (Ajinomoto Co., Inc., priority 1999, dated 2007).

Test system: AK
Experiment: AK activity of cell-free extracts, with and without L-lysine (method of Stadtman)
Format: biochemical, Methylophilus methylotrophus
Details: L-lysine alone
Procedure: Cell-free extracts were prepared from the Methylophilus methylotrophus AS1 strain containing the RSFD80 plasmid (also referred to as “AS1/RSFD80” hereinafter) and the Methylophilus methylotrophus AS1 strain containing the pRS plasmid (also referred to as “AS1/pRS” hereinafter), and AK activity was measured. The cell-free extracts (crude enzyme solutions) were prepared as follows. The AS1/RSFD80 strain and AS1/pRS strain were each inoculated to 121 production medium of the above composition containing 20 mg/L of streptomycin, cultured at 37° C. for 34 hours with shaking, and then calcium carbonate was removed and cells were harvested.
The bacterial cells obtained as described above were washed with 0.2% KCl under a condition of 0° C., suspended in 20 mM potassium phosphate buffer (pH 7) containing 10 mM MgSO4, 0.8 M (NH4)2SO4 and 0.03 M β-mercaptoethanol, and disrupted by sonication (0° C., 200 W, 10 minutes). […]
The measurement of AK activity was performed in accordance with the method of Stadtman (Stadtman, E. R., Cohen, G. N., LeBras, G., and Robichon-Szulmajster, H., J. Biol. Chem., 236, 2033 (1961)). […] The reaction solution was centrifuged, and absorbance of the supernatant was measured at 540 nm. […] When the enzymatic activity was measured, L-lysine was added to the enzymatic reaction solution at various concentrations to examine degree of inhibition by L-lysine.

## NCCCC[C@H](N)C(=O)O [L-lysine]
  inhibition of AK originally retained by the AS1 strain: not inhibited
